According to PubChem BioAssay AID1963843 (Molecular Pharmacology Branch, DTP, NCI, 2024):
pIC50: −log10 of the molar value.

System: 616215-338-R-J1-PDC complex spheroid viability
Test: Anticancer human tumor 616215-338-R-J1-PDC patient-derived colon adenocarcinoma cell line growth inhibition [POLQ]
Settings: for pIC50: curve of first compound; for viability, T/C: stronger effect = lower value
Method in brief: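 Complex spheroid viability model combining PDC tumour cells with endothelial (HUVEC) and MSC stromal cells. Novobiocin, ART-558 or RP6685 were tested singly and in combination with standard and investigational anticancer drugs. Each was titrated in half-log steps from near clinical Cmax, or from 10 microM where Cmax was unknown.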
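Further: spheroids exposed to compounds for one week before readout.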
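Wherever viability, T/C is given: percent viability relative to DMSO vehicle wells taken as 100%.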

For CCc1c2c(nc3ccc(O)cc13)-c1cc3c(c(=O)n1C2)COC(=O)[C@]3(O)CC + Cc1cccc(N(C)C(=O)C2C(O)CCN2c2nc(C)cc(C(F)(F)F)c2C#N)c1, the pIC50 (second compound 0.0316 µM) was 7.06, the pIC50 (second compound 0.1 µM) was 7.04 and the pIC50 (second compound 0.316 µM) was 7.07. The pIC50 (second compound 1 µM) was 7.10, the pIC50 (second compound 3.16 µM) was 7.18 and the pIC50 (second compound 10 µM) was 7.32. It also gave a viability, T/C (second compound 0.0316 µM, first compound 0.00316 µM) of 104%, a viability, T/C (second compound 0.0316 µM, first compound 0.01 µM) of 97% and a viability, T/C (second compound 0.0316 µM, first compound 0.0316 µM) of 72.8%. For the same compound, the viability, T/C (second compound 0.0316 µM, first compound 0.1 µM) was 49.3%, the viability, T/C (second compound 0.0316 µM, first compound 0.316 µM) was 24.6% and the viability, T/C (second compound 0.0316 µM, first compound 1 µM) was 20.8%. It also gave a viability, T/C (second compound 0.1 µM, first compound 0.00316 µM) of 114%, a viability, T/C (second compound 0.1 µM, first compound 0.01 µM) of 90.5% and a viability, T/C (second compound 0.1 µM, first compound 0.0316 µM) of 71.9%. It also gave a viability, T/C (second compound 0.1 µM, first compound 0.1 µM) of 44.5%, a viability, T/C (second compound 0.1 µM, first compound 0.316 µM) of 33.5% and a viability, T/C (second compound 0.1 µM, first compound 1 µM) of 16.1%. The viability, T/C (second compound 0.316 µM, first compound 0.00316 µM) was 109%, the viability, T/C (second compound 0.316 µM, first compound 0.01 µM) was 87.1% and the viability, T/C (second compound 0.316 µM, first compound 0.0316 µM) was 69.7%. For the same compound, the viability, T/C (second compound 0.316 µM, first compound 0.1 µM) was 48.1%, the viability, T/C (second compound 0.316 µM, first compound 0.316 µM) was 26.9% and the viability, T/C (second compound 0.316 µM, first compound 1 µM) was 18.6%. The viability, T/C (second compound 1 µM, first compound 0.00316 µM) was 111%, the viability, T/C (second compound 1 µM, first compound 0.01 µM) was 92.9% and the viability, T/C (second compound 1 µM, first compound 0.0316 µM) was 79.9%. It also gave a viability, T/C (second compound 1 µM, first compound 0.1 µM) of 40.1%, a viability, T/C (second compound 1 µM, first compound 0.316 µM) of 26% and a viability, T/C (second compound 1 µM, first compound 1 µM) of 18.7%. For the same compound, the viability, T/C (second compound 3.16 µM, first compound 0.00316 µM) was 116%, the viability, T/C (second compound 3.16 µM, first compound 0.01 µM) was 80.7% and the viability, T/C (second compound 3.16 µM, first compound 0.0316 µM) was 67.8%. For the same compound, the viability, T/C (second compound 3.16 µM, first compound 0.1 µM) was 41.6%, the viability, T/C (second compound 3.16 µM, first compound 0.316 µM) was 27.5% and the viability, T/C (second compound 3.16 µM, first compound 1 µM) was 22.1%. The viability, T/C (second compound 10 µM, first compound 0.00316 µM) was 97.7%, the viability, T/C (second compound 10 µM, first compound 0.01 µM) was 68.7% and the viability, T/C (second compound 10 µM, first compound 0.0316 µM) was 62.3%. It also gave a viability, T/C (second compound 10 µM, first compound 0.1 µM) of 39%, a viability, T/C (second compound 10 µM, first compound 0.316 µM) of 25% and a viability, T/C (second compound 10 µM, first compound 1 µM) of 23.1%.
